Legend:
HIV-1 = tested on: HIV-1
Description: Since the objective was to engineer a fully human HIV-1 restriction factor, hCypA was the fused at 10 different positions along the length of hT5α (FIG. 44A).
(§1) 2×10^4 adherent cells/well or 8×10^4 suspension cells/well were plated in 48-well plates (Nunc) for challenge with single-cycle GFP reporter vectors that were titered as indicated. GFP synthesis was assessed by flow cytometry 48 hrs post-infection. For spreading infection, 10^6 Jurkat cells were infected with 1 to 15 ng p24/10^6 cells of HIV-1NL4-3-GFP-IRES-Nef. Cells were split every 3 days, fixed in 0.5% paraformaldehyde/PBS, and assayed for GFP synthesis by flow cytometry. For infection of 10^6 primary CD4^+ T cells or macrophages, 15 ng p24/10^6 cells of a CXCR4- or CCR5-tropic HIV-1NL4-3 stock was used, and infection was monitored by assessing the accumulation of RT activity in the supernatant (Sayah et al., 2004). FACSCalibur, Cellquest Pro (Becton Dickinson), and FlowJo software (Treestar, Inc.) were used to record and analyze fluorescence. 1-5×10^5 events were acquired for analysis. […]
2×10^4 adherent cells/well or 8×10^4 suspension cells/well were plated in 48-well plates (Nunc) for challenge with single-cycle GFP reporter vectors that were titered as indicated. GFP synthesis was assessed by flow cytometry 48 hrs post-infection. […]

HIV-1NL4-3-IRES-GFP-Nef = assay: Single-cycle cell-to-cell spreading assay, 293T donors and Jurkat targets; format: cell-based; conditions: protein expressed in 293T donor cells, 2 hours co-culture
From the text: The mechanism underlying these observations has not yet been determined. […] This would implicate T5-mediated restriction both at post-entry and at a much later step in the viral life cycle (Sakuma et al., 2007; Zhang et al., 2008a). […] To assess the effects of donor and target cell T5Cyp on cell-to-cell spread of HIV-1, a single-cycle cell-to-cell spreading assay for HIV-1 infection was designed. 293T donor cell lines expressing control or indicated T5Cyp were transfected with HIV-1NL4-3-IRES-GFP-Nef provirus and supernatant was harvest during the first 48 hours to measure production of virus by RT activity. […] At the indicated time points dextran sulfate was added to the co-culture to block further infection and cells were harvested. 48 hours later the percentage of infected target Jurkat T cells was measured by flow cytometry (FIG. 53A). The magnitude of HIV-1 restriction in single cycle assays using cell-free virus is shown for recipient Jurkat T cell lines and donor 293 T cell lines is shown (FIG. 53B).

Jurkat T cells = assay: Growth and cell surface markers of transduced Jurkat T cells; conditions: CD4, CXCR4, CD11a, CD18, ICAM3, MHC-I
SIVMAC251 = SIVMAC251 GFP vector challenge of CRFK cells expressing T5 proteins; format: cell-based; conditions: in words
From the text: Most HIV-1 plasmids and vectors have been described previously (Berthoux et al., 2004). pNL4-3 contains a complete infectious HIV-1 provirus. pNL4-3-R5 bears the V3 loop of the CCR5-tropic 92TH014-2 HIV-1 strain (Papkalla et al., 2002). To generate pNL4-3-GFP-IRES-Nef, enhanced green fluorescent protein (eGFP) and the ECMV (encephalomyocarditis virus) IRES (internal ribosome entry site) were inserted upstream of nef pNLΔenvGFP is pNL4-3 with an env-inactivating mutation and eGFP in place of nef. […] For biochemistry, hT5Cyps were cloned into the p3xFLAG-CMV-7.1 expression vector (Sigma) and HIV-1 CA was expressed as a GST-fusion using the EF1α promoter.
as §1, with “For spreading infection, 10^6 Jurkat cells were infected with 1 to 15 ng p24/10^6 cells of HIV-1NL4-3-GFP-IRES-Nef. Cells were split every 3 days, fixed in 0.5% paraformaldehyde/PBS, and assayed for GFP synthesis by flow cytometry.” left out, “fluorescence.” for “fluorescence. 1-5×10^5 events were acquired for analysis.”

Row | Substance | magnitude of restriction with CypA knockdown (HIV-1; CypA KD vs Luc KD Jurkat T cells) | infection of control target cells lower than with empty vector donors (HIV-1NL4-3-IRES-GFP-Nef) [fold] | growth kinetics and cell surface marker levels vs control vector (Jurkat T cells) | restriction of SIVMAC251 (SIVMAC251) | HIV-1 restriction activity (HIV-1; in words, Jurkat T cells (b397 also THP-1 monocytes))
1 | AoT5Cyp: Aotus (owl monkey) TRIM5-cyclophilin A fusion protein [reference compound] | Equivalent results | 3 | grew with the same kinetics and expressed similar levels | neither AoT5Cyp nor hT5Cyp can restrict this virus | 
2 | hT5Cyp: human TRIM5α fused at serine 322 to human cyclophilin A, SEQ ID NO:12 |  | 10 | grew with the same kinetics and expressed similar levels | neither AoT5Cyp nor hT5Cyp can restrict this virus | activity comparable to AoT5Cyp

— patent publication US8835617B2, “Polynucleotides encoding a human TRIM-Cyp fusion polypeptide, compositions thereof, and methods of using same” (priority 2008, dated 2014)
